# Data reported in patent US20140206681A1, “BTK INHIBITORS” (priority 2013, published 2014).
# Legend:
# [1] = biological target: T1, BTK enzyme (recombinant full-length BTK, hBTK) (Homo sapiens, UniProt Q06187); assay: BTK enzyme activity assay, LANCE TR-FRET; assay type: biochemical; settings: 50 pM hBTK, 2 μM biotin-A5-peptide, 25 μM ATP; 60 min compound & enzyme incubation; read-out: IC50 BTK activity value
# T1 construct: recombinant protein from baculovirus-transfected Sf9 cells: full-length BTK, 6HIS-tag cleaved; 6HIS (cleaved yes); made in house; host or cells: baculovirus-transfected Sf9 cells
# HeLa cells = assay: [3H]Adenosine uptake functional cellular assay; assay type: cell-based; settings: Homo sapiens, HeLa, accumulation of [3H]adenosine into HeLa cells; compound range 10 μM to […]; read-out: Adenosine uptake inhibition IC50
# Procedure, shortened: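 Inhibition of adenosine uptake was measured in HeLa cells (ATCC CCL-2) by following accumulation of tritiated adenosine. Cells were kept overnight at 37° C. with 5% (v/v) CO2, then switched to 40 μL HBSS plus 5% (v/v) FBS. 20 μL of 500 nM [3H]adenosine was added, and uptake was counted on a Topcount NXT reader.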
# T1 sequence (Q06187 whole entry): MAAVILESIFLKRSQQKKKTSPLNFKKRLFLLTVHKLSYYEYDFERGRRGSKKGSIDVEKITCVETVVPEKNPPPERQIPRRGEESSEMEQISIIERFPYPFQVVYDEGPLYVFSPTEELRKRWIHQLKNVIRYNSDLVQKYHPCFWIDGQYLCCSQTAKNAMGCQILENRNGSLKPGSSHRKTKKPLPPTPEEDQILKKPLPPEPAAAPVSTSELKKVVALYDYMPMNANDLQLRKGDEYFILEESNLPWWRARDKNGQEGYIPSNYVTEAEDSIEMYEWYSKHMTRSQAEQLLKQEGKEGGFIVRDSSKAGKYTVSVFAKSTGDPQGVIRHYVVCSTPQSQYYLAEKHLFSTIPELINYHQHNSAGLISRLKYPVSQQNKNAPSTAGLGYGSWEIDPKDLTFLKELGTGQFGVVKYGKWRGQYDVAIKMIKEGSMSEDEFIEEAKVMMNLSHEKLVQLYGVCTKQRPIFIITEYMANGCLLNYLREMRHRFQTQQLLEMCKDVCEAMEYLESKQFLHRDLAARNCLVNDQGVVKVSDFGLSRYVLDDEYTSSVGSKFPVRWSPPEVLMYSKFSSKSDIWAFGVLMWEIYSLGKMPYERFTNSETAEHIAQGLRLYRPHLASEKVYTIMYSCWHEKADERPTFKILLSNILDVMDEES
Compound,IC50 [1] [nM],IC50 (HeLa cells) [nM]
"C[C@H]1OC[C@@H]2CC[C@@H](c3nc(-c4ccc(C(=O)Nc5cc(C(F)(F)F)ccn5)cc4)c4c(N)nccn34)CN2C1=O [Example 77, 4-(8-amino-3-((3R,7R,9aS)-3-methyl-4-oxooctahydropyrido[2,1-c][1,4]oxazin-7-yl)imidazo[1,5-a]pyrazin-1-yl)-N-(4-(trifluoromethyl)pyridin-2-yl)benzamide]",0.13,31.2
"N#C/N=C1\CC[C@@H]2CC[C@@H](c3nc(-c4ccc(C(=O)Nc5cc(C(F)(F)F)ccn5)cc4)c4c(N)nccn34)CN12 [Example 78, 4-(8-amino-3-((6R,8aS,E)-3-(cyanoimino)octahydroindolizin-6-yl)imidazo[1,5-a]pyrazin-1-yl)-N-(4-(trifluoromethyl)pyridin-2-yl)benzamide]",0.46,132
"COC(=O)Nc1nccn2c([C@@H]3CC[C@H]4CCC(=O)N4C3)nc(-c3ccc(C(=O)Nc4cc(C(F)(F)F)ccn4)cc3)c12 [Example 79, methyl (3-((6R,8aS)-3-oxooctahydroindolizin-6-yl)-1-(4-((4-(trifluoromethyl)pyridin-2-yl)carbamoyl)phenyl)imidazo[1,5-a]pyrazin-8-yl)carbamate]",7.3,295
"CCN1CC(=O)N2C[C@H](c3nc(-c4ccc(C(=O)Nc5cc(C(F)(F)F)ccn5)cc4)c4c(N)nccn34)CC[C@H]2C1 [Example 80, 4-(8-amino-3-((7R,9aS)-2-ethyl-4-oxooctahydro-1H-pyrido[1,2-a]pyrazin-7-yl)imidazo[1,5-a]pyrazin-1-yl)-N-(4-(trifluoromethyl)pyridin-2-yl)benzamide]",0.27,82.5
CC(C)N1CC(=O)N2C[C@H](c3nc(-c4ccc(C(=O)Nc5cc(C(F)(F)F)ccn5)cc4)c4c(N)nccn34)CC[C@H]2C1 [Example 81],0.29,68.6
COC(=O)CN1CC(=O)N2C[C@H](c3nc(-c4ccc(C(=O)Nc5cc(C(F)(F)F)ccn5)cc4)c4c(N)nccn34)CC[C@H]2C1 [Example 82],0.19,78.1
"Nc1nccn2c([C@@H]3CC[C@H]4CCCN4C3)nc(-c3ccc(C(=O)Nc4cc(C(F)(F)F)ccn4)cc3)c12 [Example 87, 4-(8-amino-3-((6R,8aS)-octahydroindolizin-6-yl)imidazo[1,5-a]pyrazin-1-yl)-N-(4-(trifluoromethyl)pyridin-2-yl)benzamide]",0.67,75.5
"COc1cc(C(=O)Nc2cc(C(F)(F)F)ccn2)ccc1-c1nc([C@@H]2CC[C@H]3[C@@H](C)OC(=O)N3C2)n2ccnc(N)c12 [Example 89, 4-(8-amino-3-((1R,6R,8aS)-1-methyl-3-oxohexahydro-1H-oxazolo[3,4-a]pyridin-6-yl)imidazo[1,5-a]pyrazin-1-yl)-3-methoxy-N-(4-(trifluoromethyl)pyridin-2-yl)benzamide]",0.13,490
"COc1cc(C(=O)Nc2cc(C(F)(F)F)ccn2)ccc1-c1nc([C@@H]2CC[C@@H]3N(C2)C(=O)OC3(C)C)n2ccnc(N)c12 [Example 90, 4-(8-amino-3-((6R,8aS)-1,1-dimethyl-3-oxohexahydro-1H-oxazolo[3,4-a]pyridin-6-yl)imidazo[1,5-a]pyrazin-1-yl)-3-methoxy-N-(4-(trifluoromethyl)pyridin-2-yl)benzamide]",0.18,373
"COc1cc(C(=O)Nc2cc(C(F)(F)F)ccn2)ccc1-c1nc([C@H]2CN3C(=O)CC[C@@H]3CO2)n2ccnc(N)c12 [Example 91, 4-(8-amino-3-((3R,8aR)-6-oxohexahydro-1H-pyrrolo[2,1-c][1,4]oxazin-3-yl)imidazo[1,5-a]pyrazin-1-yl)-3-methoxy-N-(4-(trifluoromethyl)pyridin-2-yl)benzamide]",0.52,639
"Nc1nccn2c([C@@H]3CC[C@H]4CCOC(=O)N4C3)nc(-c3ccc(C(=O)Nc4cc(C(F)(F)F)ccn4)cc3)c12 [Example 92, 4-{8-amino-3-[(4aS,7R)-1-oxohexahydro-3H-pyrido[1,2-c][1,3]oxazin-7-yl]imidazo[1,5-a]pyrazin-1-yl}-N-[4-(trifluoromethyl)pyridin-2-yl]benzamide]",0.075,64.6
"Nc1nccn2c([C@H]3CC[C@@H]4CCOC(=O)N4C3)nc(-c3ccc(C(=O)Nc4cc(C(F)(F)F)ccn4)cc3)c12 [Example 93, 4-{8-amino-3-[(4aR,7S)-1-oxohexahydro-3H-pyrido[1,2-c][1,3]oxazin-7-yl]imidazo[1,5-a]pyrazin-1-yl}-N-[4-(trifluoromethyl)pyridin-2-yl]benzamide]",2.6,158
"CC1(C)C[C@H]2CC[C@H](c3nc(-c4ccc(C(=O)Nc5cc(C(F)(F)F)ccn5)cc4)c4c(N)nccn34)CN2C1=O [Example 94, 4-{8-amino-3-[(6S,8aR)-2,2-dimethyl-3-oxooctahydroindolizin-6-yl]imidazo[1,5-a]pyrazin-1-yl}-N-[4-(trifluoromethyl)pyridin-2-yl]benzamide]",0.14,63.2
"C[C@@H]1OC(=N)N2C[C@H](c3nc(-c4ccc(C(=O)Nc5cc(C(F)(F)F)ccn5)cc4)c4c(N)nccn34)CC[C@@H]12 [Example 96, 4-{8-amino-3-[(1S,6R,8aS)-3-imino-1-methylhexahydro[1,3]oxazolo[3,4-a]pyridin-6-yl]imidazo[1,5-a]pyrazin-1-yl}-N-[4-(trifluoromethyl)pyridin-2-yl]benzamide]",1.3,1140
"CC(O)c1ccnc(NC(=O)c2ccc(-c3nc([C@@H]4CC[C@H]5CCC(=O)N5C4)n4ccnc(N)c34)cc2)c1 (stereo partly drawn) [Example 97, 4-{8-amino-3-[(6R,8aS)-3-oxooctahydroindolizin-6-yl]imidazo[1,5-a]pyrazin-1-yl}-N-[4-(1-hydroxyethyl)pyridin-2-yl]benzamide]",9.7,5380
"CC(C)(O)c1ccnc(NC(=O)c2ccc(-c3nc([C@@H]4CC[C@H]5CCC(=O)N5C4)n4ccnc(N)c34)cc2)c1 [Example 98, 4-{8-amino-3-[(6R,8aS)-3-oxooctahydroindolizin-6-yl]imidazo[1,5-a]pyrazin-1-yl}-N-[4-(1-hydroxy-1-methylethyl)pyridin-2-yl]benzamide]",49.3,6320

# Other lines, results leading:
IC50 [1] [nM],IC50 (HeLa cells) [nM],Compound
1.5,184,"COC(C)c1ccnc(NC(=O)c2ccc(-c3nc([C@@H]4CC[C@H]5CCC(=O)N5C4)n4ccnc(N)c34)cc2)c1 (stereo partly drawn) [Example 99, 4-{8-amino-3-[(6R,8aS)-3-oxooctahydroindolizin-6-yl]imidazo[1,5-a]pyrazin-1-yl}-N-[4-(1-methoxyethyl)pyridin-2-yl]benzamide]"
0.51,463,"COc1cc(C(=O)Nc2cc(C(F)(F)F)ccn2)ccc1-c1nc([C@@H]2CC[C@H]3CC(C)(C)C(=O)N3C2)n2ccnc(N)c12 [Example 100, 4-{8-amino-3-[(6R,8aS)-2,2-dimethyl-3-oxooctahydroindolizin-6-yl]imidazo[1,5-a]pyrazin-1-yl}-3-methoxy-N-[4-(trifluoromethyl)pyridin-2-yl]benzamide]"
45.4,487,"COc1cc(C(=O)Nc2cc(C(F)(F)F)ccn2)ccc1-c1nc([C@H]2CC[C@@H]3CC(C)(C)C(=O)N3C2)n2ccnc(N)c12 [Example 101, 4-{8-amino-3-[(6S,8aR)-2,2-dimethyl-3-oxooctahydroindolizin-6-yl]imidazo[1,5-a]pyrazin-1-yl}-3-methoxy-N-[4-(trifluoromethyl)pyridin-2-yl]benzamide]"
0.21,471,"Nc1nccn2c([C@@H]3CC[C@H]4CN(C(=O)c5ccncc5)CC(=O)N4C3)nc(-c3ccc(C(=O)Nc4cc(C(F)(F)F)ccn4)cc3)c12 [Example 102, 4-{8-amino-3-[(7R,9aS)-4-oxo-2-(pyridin-4-ylcarbonyl)octahydro-2H-pyrido[1,2-a]pyrazin-7-yl]imidazo[1,5-a]pyrazin-1-yl}-N-[4-(trifluoromethyl)pyridin-2-yl]benzamide]"
0.4,69.3,"COC(=O)c1ccnc(NC(=O)c2ccc(-c3nc([C@@H]4CC[C@H]5CCC(=O)N5C4)n4ccnc(N)c34)cc2)c1 [Example 103, methyl 2-{[(4-{8-amino-3-[(6R,8aS)-3-oxooctahydroindolizin-6-yl]imidazo[1,5-a]pyrazin-1-yl}phenyl)carbonyl]amino}pyridine-4-carboxylate]"
1.2,303,"Nc1nccn2c([C@@H]3CC[C@H]4CCC(=O)N4C3)nc(-c3ccc(C(=O)Nc4cc(C(F)(F)F)cnn4)cc3)c12 [Example 104, 4-{8-amino-3-[(6R,8aS)-3-oxooctahydroindolizin-6-yl]imidazo[1,5-a]pyrazin-1-yl}-N-[5-(trifluoromethyl)pyridazin-3-yl]benzamide]"
0.19,193,"Nc1nccn2c([C@@H]3CC[C@H]4CCC(=O)N4C3)nc(-c3ccc(C(=O)Nc4cc5ccccc5cn4)cc3)c12 [Example 106, 4-{8-amino-3-[(6R,8aS)-3-oxooctahydroindolizin-6-yl]imidazo[1,5-a]pyrazin-1-yl}-N-isoquinolin-3-ylbenzamide]"
0.26,206,"Nc1nccn2c([C@H]3CN4C(=O)CC[C@@H]4CO3)nc(-c3ccc(C(=O)Nc4cc(C(F)(F)F)ccn4)cc3)c12 [Example 107, 4-{8-amino-3-[(3R,8aR)-6-oxohexahydro-1H-pyrrolo[2,1-c][1,4]oxazin-3-yl]imidazo[1,5-a]pyrazin-1-yl}-N-[4-(trifluoromethyl)pyridin-2-yl]benzamide]"
